This test deals with T1, HIV-1 Reverse Transcriptase (Human immunodeficiency virus type 1 group M subtype B, UniProt P03366).
T1 construct: Lys101, Val179 (p66 subunit) and Glu138 (p51 subunit); purchased Roche
Nature of the test: HIV-1 RT inhibitory action, colorimetric photometric immunoassay kit (Roche). The conditions noted are these: for IC50: IC50 (μM), 45 min pre-incubation, 2 h at 37 °C. Type of test: biochemical. The method, then: For the evaluation of the HIV-1 Reverse Transcriptase activity, the colorimetric photometric immunoassay kit provided by Roche was used. A two hours incubation at 37 °C was performed, as previously described in our paper following a pre-incubation step in which reverse transcriptase was incubated in the presence of the potential inhibitor for 45 min at room temperature before the addition of the substrate. The total-activity was measured in the absence of inhibitors (compounds) with the addition of an equal volume of the solvent of the compounds to the reaction mixture. For the determination of enzyme activity, incubation in the absence of enzyme was used as blank. Different inhibitor concentrations were added for the calculation of IC50 values.

Inhibition and IC50 data for 32 molecules are collected here from paper PMC6864537, “Novel Thiazolidin-4-ones as Potential Non-Nucleoside Inhibitors of HIV-1 Reverse Transcriptase” (Molecules, 2019).

One may read the inhibition as the percentage by which the read-out fell short of the control. As usually defined, the IC50 is the concentration that gives 50% inhibition. High values mean a need for much substance, low ones inhibition by little substance. `COc1ccc(C2SCC(=O)N2c2nc3c(OC)cccc3s2)cc1` (stereo not shown) [Compound 18, 3-(4-Methoxy-benzo[d]thiazol-2-yl)-2-(4-methoxyphenyl)thiazolidin-4-one]: testing at 4 µM gave an inhibition of 72% and 2.69 µM corresponded to half-maximal inhibition (IC50).
`O=C1CSC(c2c(F)cccc2Cl)N1c1nc2cccc(Cl)c2s1` (stereo not shown) [Compound 2, 3-(7-Chloro-benzo[d]thiazol-2-yl)-2-(2-chloro-6-fluorophenyl)thiazolidin-4-one]: at 4 µM the inhibition was 72% and inhibition was half-maximal at 0.0047 µM (IC50).
On to `CCOc1ccc2nc(N3C(=O)CSC3c3ccc(OC)cc3)sc2c1` (stereo not shown) [Compound 27, 3-(6-Ethoxy-benzo[d]thiazol-2-yl)-2-(4-methoxyphenyl)thiazolidin-4-one], for which 4 µM produced 76% inhibition and the midpoint of inhibition, the IC50, lay at 1.93 µM.
In turn, `O=C1CSC(c2ccc(F)cc2)N1c1nc2c(Cl)cccc2s1` (stereo not shown) [Compound 10, 3-(4-Chloro-benzo[d]thiazol-2-yl)-2-(4-fluorophenyl)thiazolidin-4-one] returned an inhibition at 4 µM of 63% and an IC50 of 0.001 µM.
`O=C1CSC(c2ccc(O)cc2)N1c1nc2c(Cl)cccc2s1` (stereo not shown) [Compound 14, 3-(4-Chloro-benzo[d]thiazol-2-yl)-2-(4-hydroxyphenyl)thiazolidin-4-one] returned an inhibition at 4 µM of 83% and a concentration for half-maximal inhibition (IC50) of 0.01 µM.
As for `O=C1CSC(c2ccc(F)cc2)N1c1nc2ccc(F)cc2s1` (stereo not shown) [Compound 3, 3-(6-Fluoro-benzo[d]thiazol-2-yl)-2-(4-fluorophenyl)thiazolidin-4-one], the inhibition at 4 µM is 72% and the IC50 was 0.15 µM.
In the case of `COc1ccc(C2SCC(=O)N2c2nc3ccc(OC)cc3s2)cc1` (stereo not shown) [Compound 23, 3-(6-Methoxy-benzo[d]thiazol-2-yl)-2-(4-methoxyphenyl)thiazolidin-4-one], the inhibition at 4 µM amounted to 73% and inhibition was half-maximal at 2.39 µM (IC50).
`O=C1CSC(c2ccc([N+](=O)[O-])cc2)N1c1nc2ccc(OC(F)(F)F)cc2s1` (stereo not shown) [Compound 31, 3-(6-Trifluoromethoxy-benzo[d]thiazol-2-yl)-2-(4-nitrophenyl)thiazolidin-4-one]: testing at 4 µM gave an inhibition of 46% and the IC50 is > 4 µM.
The like results for `COc1cccc2sc(N3C(=O)CSC3c3ccc(F)cc3)nc12` (stereo not shown) [Compound 15, 3-(4-Methoxy-benzo[d]thiazol-2-yl)-2-(4-flurophenyl)thiazolidin-4-one] were, in that order, 69% and 2.08 µM.
The molecule `O=C1CSC(c2ccc(O)cc2)N1c1nc2ccc(F)cc2s1` (stereo not shown) [Compound 7, 3-(6-Fluoro-benzo[d]thiazol-2-yl)-2-(4-hydroxyphenyl)thiazolidin-4-one] returned an inhibition at 4 µM of 50% and an IC50 of 4 µM.
For the molecule `O=C1CSC(c2cccc(Cl)c2Cl)N1c1nc2ccc(OC(F)(F)F)cc2s1` (stereo not shown) [Compound 30, 3-(6-Trifluoromethoxy-benzo[d]thiazol-2-yl)-2-(2,3-dichlorophenyl) thiazolidin-4-one], the inhibition at 4 µM came to 46% and the half-maximal inhibitory concentration (IC50) is > 4 µM.
For the molecule `O=C1CSC(c2ccc(Cl)cc2)N1c1nc2ccc(OC(F)(F)F)cc2s1` (stereo not shown) [Compound 32, 3-(6-Trifluoromethoxy-benzo[d]thiazol-2-yl)-2-(4-chlorophenyl)thiazolidin-4-one], 4 µM produced 46% inhibition and the IC50 is > 4 µM.
Turning to `O=C1CSC(c2c(Cl)cccc2Cl)N1c1nc2ccc(OC(F)(F)F)cc2s1` (stereo not shown) [Compound 29, 3-(6-Trifluoromethoxy-benzo[d]thiazol-2-yl)-2-(2,6-dichlorophenyl) thiazolidin-4-one], 4 µM produced 49% inhibition and the midpoint of inhibition, the IC50, lay at 4.28 µM.
On to `O=C1CSC(c2ccc(O)cc2)N1c1nc2ccc(Cl)cc2s1` (stereo not shown) [Compound 9, 3-(6-Chloro-benzo[d]thiazol-2-yl)-2-(4-hydroxyphenyl)thiazolidin-4-one], for which the inhibition at 4 µM stood at 56% and the IC50 turned out to be 0.001 µM.
For the molecule `O=C1CSC(c2ccc(F)cc2)N1c1nc2ccc(Cl)cc2s1` (stereo not shown) [Compound 8, 3-(6-Chloro-benzo[d]thiazol-2-yl)-2-(4-fluorophenyl)thiazolidin-4-one], the inhibition at 4 µM was determined as 83% and the IC50 came to 0.26 µM.
The like results for `COc1cccc2sc(N3C(=O)CSC3c3ccc(Cl)cc3)nc12` (stereo not shown) [Compound 17, 3-(4-Methoxy-benzo[d]thiazol-2-yl)-2-(4-chlorophenyl)thiazolidin-4-one] were, in that order, 67% and 2.6 µM.
The corresponding values for `COc1ccc2nc(N3C(=O)CSC3c3ccc(Cl)cc3)sc2c1` (stereo not shown) [Compound 22, 3-(6-Methoxy-benzo[d]thiazol-2-yl)-2-(4-chlorophenyl)thiazolidin-4-one] are 72% and 2.76 µM.
Regarding `COc1ccc2nc(N3C(=O)CSC3c3ccc([N+](=O)[O-])cc3)sc2c1` (stereo not shown) [Compound 21, 3-(6-Methoxy-benzo[d]thiazol-2-yl)-2-(4-nitrophenyl)thiazolidin-4-one], at 4 µM the inhibition was 50% and the IC50 came to 4 µM.
Regarding `COc1ccc(C2SCC(=O)N2c2nc3c(Cl)cccc3s2)cc1` (stereo not shown) [Compound 13, 3-(4-Chloro-benzo[d]thiazol-2-yl)-2-(4-methoxyphenyl)thiazolidin-4-one], at 4 µM the inhibition was 65% and the concentration for half-maximal inhibition (IC50) turned out to be 1.99 µM.
For `O=C1CSC(c2c(F)cccc2F)N1c1nc2cccc(Cl)c2s1` (stereo not shown) [Compound 1, 3-(7-Chloro-benzo[d]thiazol-2-yl)-2-(2,6-difluorophenyl)thiazolidin-4-one], the inhibition at 4 µM was found to be 70% and the IC50 was determined as 0.21 µM.
The like results for `O=C1CSC(c2ccc(Cl)cc2)N1c1nc2ccc(F)cc2s1` (stereo not shown) [Compound 5, 3-(6-Fluoro-benzo[d]thiazol-2-yl)-2-(4-chlorophenyl)thiazolidin-4-one] were, in that order, 44% and > 4 µM.
The corresponding values for `O=C1CSC(c2ccc([N+](=O)[O-])cc2)N1c1nc2ccc(F)cc2s1` (stereo not shown) [Compound 4, 3-(6-Fluoro-benzo[d]thiazol-2-yl)-2-(4-nitrophenyl)thiazolidin-4-one] are 54% and 3.8 µM.
Take `O=C1CSC(c2ccc([N+](=O)[O-])cc2)N1c1nc2c(Cl)cccc2s1` (stereo not shown) [Compound 11, 3-(4-Chloro-benzo[d]thiazol-2-yl)-2-(4-nitrophenyl)thiazolidin-4-one]: the inhibition at 4 µM is 40% and the IC50 was > 4 µM.
The molecule `CCOc1ccc2nc(N3C(=O)CSC3c3ccc(O)cc3)sc2c1` (stereo not shown) [Compound 28, 3-(6-Ethoxy-benzo[d]thiazol-2-yl)-2-(4-hydroxyphenyl)thiazolidin-4-one] showed an inhibition at 4 µM of 62% and an IC50 of 2 µM.
Consider `COc1cccc2sc(N3C(=O)CSC3c3ccc(O)cc3)nc12` (stereo not shown) [Compound 19, 3-(4-Methoxy-benzo[d]thiazol-2-yl)-2-(4-hydroxyphenyl)thiazolidin-4-one], for which at 4 µM the inhibition was 71% and the IC50 was determined as 2.62 µM.
Take `O=C1CSC(c2ccc(Cl)cc2)N1c1nc2c(Cl)cccc2s1` (stereo not shown) [Compound 12, 3-(4-Chloro-benzo[d]thiazol-2-yl)-2-(4-chlorophenyl)thiazolidin-4-one]: at 4 µM the inhibition was 50% and the IC50 came to 4 µM.
Consider `CCOc1ccc2nc(N3C(=O)CSC3c3ccc(F)cc3)sc2c1` (stereo not shown) [Compound 24, 3-(6-Ethoxy-benzo[d]thiazol-2-yl)-2-(4-fluorophenyl)thiazolidin-4-one], for which the inhibition at 4 µM is 36% and the IC50 is > 4 µM.
For the molecule `CCOc1ccc2nc(N3C(=O)CSC3c3ccc(Cl)cc3)sc2c1` (stereo not shown) [Compound 26, 3-(6-Ethoxy-benzo[d]thiazol-2-yl)-2-(4-chlorophenyl)thiazolidin-4-one], the inhibition at 4 µM amounted to 73% and the IC50 was found to be 2.48 µM.
As to `COc1ccc2nc(N3C(=O)CSC3c3ccc(F)cc3)sc2c1` (stereo not shown) [Compound 20, 3-(6-Methoxy-benzo[d]thiazol-2-yl)-2-(4-fluorophenyl)thiazolidin-4-one], testing at 4 µM gave an inhibition of 55% and the IC50 was 1.51 µM.
For `COc1ccc(C2SCC(=O)N2c2nc3ccc(F)cc3s2)cc1` (stereo not shown) [Compound 6, 3-(6-Fluoro-benzo[d]thiazol-2-yl)-2-(4-methoxyphenyl)thiazolidin-4-one], testing at 4 µM gave an inhibition of 35% and the IC50 was > 4 µM.
The corresponding values for `COc1cccc2sc(N3C(=O)CSC3c3ccc([N+](=O)[O-])cc3)nc12` (stereo not shown) [Compound 16, 3-(4-Methoxy-benzo[d]thiazol-2-yl)-2-(4-nitrophenyl)thiazolidin-4-one] are 68% and 2.2 µM.
Turning to `CCOc1ccc2nc(N3C(=O)CSC3c3ccc([N+](=O)[O-])cc3)sc2c1` (stereo not shown) [Compound 25, 3-(6-Ethoxy-benzo[d]thiazol-2-yl)-2-(4-nitrophenyl)thiazolidin-4-one], the inhibition at 4 µM came out at 44% and the half-maximal inhibitory concentration (IC50) was > 4 µM.
